Experimental data published in patent US20190247322A1, “Active Mixture of 1,2-hexanediol and 1,2-octanediol” (Symrise AG, priority 2015, published 2019).

What was measured:
[1] = water (20° dH) at 20° C., solid active agent; cited from earlier work
Candida albicans = assay: Antimicrobial activity, minimum inhibitory concentration; type: cell-based
Description: (§1) Antimicrobial activity of a mixture of 1,2-hexanediol and 1,2-octanediol (1:1) was investigated compared to the individual 1,2-diols with regard to 5 prominent microorganisms:
(§2) EC Echerichia coli PA Pseudomonas aeruginosa SA Staphylococcus aureus CA Candida albicans AN Aspergillus niger
(§3) Shown are the minimum inhibitory concentrations (MICs) in percent.

Echerichia coli = assay: as above; type: cell-based
Description: as §1, §2, §3

Staphylococcus aureus = assay: as above; type: cell-based
Description: as §1, §2, §3

Aspergillus niger = assay: as above; type: cell-based
Description: as §1, §2, §3

Pseudomonas aeruginosa = assay: as above; type: cell-based
Description: as §1, §2, §3

minimum inhibitory concentration (MIC), CA (Candida albicans) [%] | minimum inhibitory concentration (MIC), EC (Echerichia coli) [%] | minimum inhibitory concentration (MIC), SA (Staphylococcus aureus) [%] | minimum inhibitory concentration (MIC), AN (Aspergillus niger) [%] | minimum inhibitory concentration (MIC), PA (Pseudomonas aeruginosa) [%] | SMILES | solubility in water [1]
 |  |  |  |  | Nc1nc2c(ncn2COCCO)c(=O)[nH]1 [Acyclovir, 2-Amino-1,9-dihydro-9-((2-hydroxyethoxy)methyl)-6H-Purin-6-one] | less than 5 g/L
1.25 | 1.25 | 2.50 | 0.63 | 0.63 | CCCCC(O)CO (centres unmarked) [Comparative Example C1, 1,2-hexanediol] | 
0.31 | 0.63 | 1.25 | 0.16 | 0.63 | CCCCCCC(O)CO (centres unmarked) [Comparative Example C2, 1,2-octanediol] | 
